Measured values as given in ChEMBL document CHEMBL3217526, “Bioguided discovery and pharmacophore modeling of the mycotoxic indole diterpene alkaloids penitrems as breast cancer proliferation, migration, and invasion inhibitors” (Medchemcomm, 2013).

Legend:
Format in all cases: functional
[1] = Cytotoxicity against human Hs578T cells assessed as growth inhibition at 10 uM; settings: Hs-578T, read-out: GI
SF-539 = experiment: Cytotoxicity against human SF539 cells assessed as growth inhibition at 10 uM; settings: read-out: GI
[2] = Cytotoxicity against human OVCAR3 cells assessed as growth inhibition at 10 uM; settings: OVCAR-3, read-out: GI
CAKI-1 = experiment: Cytotoxicity against human CAKI-1 cells assessed as growth inhibition at 10 uM; settings: read-out: GI
A549 = experiment: Cytotoxicity against human A549 cells assessed as growth inhibition at 10 uM; settings: read-out: GI
SK-MEL-2 = experiment: Cytotoxicity against human SK-MEL-2 cells assessed as growth inhibition at 10 uM; settings: read-out: GI
NCI-H322M = experiment: Cytotoxicity against human NCI-H322M cells assessed as growth inhibition at 10 uM; settings: read-out: GI
COLO 205 = experiment: Cytotoxicity against human COLO205 cells assessed as growth inhibition at 10 uM; settings: read-out: GI
SNB-75 = experiment: Cytotoxicity against human SNB75 cells assessed as growth inhibition at 10 uM; settings: read-out: GI
[3] = Cytotoxicity against human OVCAR8 cells assessed as growth inhibition at 10 uM; settings: OVCAR-8, read-out: GI
KM12 = experiment: Cytotoxicity against human KM12 cells assessed as growth inhibition at 10 uM; settings: read-out: GI
K562 = experiment: Cytotoxicity against human K562 cells assessed as growth inhibition at 10 uM; settings: read-out: GI
786-0 = experiment: Cytotoxicity against human 786-0 cells assessed as growth inhibition at 10 uM; settings: read-out: GI
MDA-MB-435 = experiment: Cytotoxicity against human MDA-MB-435 cells assessed as growth inhibition at 10 uM; settings: read-out: GI
[4] = Cytotoxicity against human OVCAR5 cells assessed as growth inhibition at 10 uM; settings: OVCAR-5, read-out: GI
U-251 = experiment: Cytotoxicity against human U251 cells assessed as growth inhibition at 10 uM; settings: read-out: GI
Malme-3M = experiment: Cytotoxicity against human MALME-3M cells assessed as growth inhibition at 10 uM; settings: read-out: GI
HCC 2998 = experiment: Cytotoxicity against human HCC2998 cells assessed as growth inhibition at 10 uM; settings: read-out: GI
[5] = Cytotoxicity against human UACC257 cells assessed as growth inhibition at 10 uM; settings: UACC-257, read-out: GI
NCI-H522 = experiment: Cytotoxicity against human NCI-H522 cells assessed as growth inhibition at 10 uM; settings: read-out: GI
RXF 393 = experiment: Cytotoxicity against human RXF393 cells assessed as growth inhibition at 10 uM; settings: read-out: GI
HT-29 = experiment: Cytotoxicity against human HT-29 cells assessed as growth inhibition at 10 uM; settings: read-out: GI
[6] = Cytotoxicity against human UO31 cells assessed as growth inhibition at 10 uM; settings: UO-31, read-out: GI
SW-620 = experiment: Cytotoxicity against human SW620 cells assessed as growth inhibition at 10 uM; settings: read-out: GI
SNB-19 = experiment: Cytotoxicity against human SNB19 cells assessed as growth inhibition at 10 uM; settings: read-out: GI
DU-145 = experiment: Cytotoxicity against human DU145 cells assessed as growth inhibition at 10 uM; settings: read-out: GI
SK-MEL-5 = experiment: Cytotoxicity against human SK-MEL-5 cells assessed as growth inhibition at 10 uM; settings: read-out: GI
MDA-MB-231 [7] = experiment: Cytotoxicity against human MDA-MB-231 cells assessed as growth inhibition at 10 uM; settings: read-out: GI
M14 = experiment: Cytotoxicity against human M14 cells assessed as growth inhibition at 10 uM; settings: read-out: GI
HOP-62 = experiment: Cytotoxicity against human HOP62 cells assessed as growth inhibition at 10 uM; settings: read-out: GI
[8] = Cytotoxicity against human EKVX cells assessed as growth inhibition at 10 uM; settings: read-out: GI
MOLT-4 = experiment: Cytotoxicity against human MOLT4 cells assessed as growth inhibition at 10 uM; settings: read-out: GI
NCI-H226 = experiment: Cytotoxicity against human NCI-H226 cells assessed as growth inhibition at 10 uM; settings: read-out: GI
HL-60(TB) = experiment: Cytotoxicity against human HL-60(TB) cells assessed as growth inhibition at 10 uM; settings: read-out: GI
TK-10 = experiment: Cytotoxicity against human TK10 cells assessed as growth inhibition at 10 uM; settings: read-out: GI
MCF7 = experiment: Cytotoxicity against human MCF7 cells assessed as growth inhibition at 10 uM; settings: read-out: GI
SF-268 = experiment: Cytotoxicity against human SF268 cells assessed as growth inhibition at 10 uM; settings: read-out: GI
[9] = Cytotoxicity against human HCT15 cells assessed as growth inhibition at 10 uM; settings: HCT-15, read-out: GI
T47D = experiment: Cytotoxicity against human T47D cells assessed as growth inhibition at 10 uM; settings: read-out: GI
LOX IMVI = experiment: Cytotoxicity against human LOXIMVI cells assessed as growth inhibition at 10 uM; settings: read-out: GI
MDA-MB-468 = experiment: Cytotoxicity against human MDA-MB-468 cells assessed as growth inhibition at 10 uM; settings: read-out: GI
SK-MEL-28 = experiment: Cytotoxicity against human SK-MEL-28 cells assessed as growth inhibition at 10 uM; settings: read-out: GI
SK-OV-3 = experiment: Cytotoxicity against human SKOV3 cells assessed as growth inhibition at 10 uM; settings: read-out: GI
SR = experiment: Cytotoxicity against human SR cells assessed as growth inhibition at 10 uM; settings: read-out: GI
SF-295 = experiment: Cytotoxicity against human SF295 cells assessed as growth inhibition at 10 uM; settings: read-out: GI
IGROV-1 = experiment: Cytotoxicity against human IGROV1 cells assessed as growth inhibition at 10 uM; settings: read-out: GI
MDA-MB-231 [10] = experiment: Antiinvasive activity against human MDA-MB-231 cells assessed as inhibition of cell invasion at 15 uM after 24 hrs by BME Cell invasion assay kit; settings: MDA-MB-231, 24 h
NCI-H23 = experiment: Cytotoxicity against human NCI-H23 cells assessed as growth inhibition at 10 uM; settings: read-out: GI
BT-549 = experiment: Cytotoxicity against human BT549 cells assessed as growth inhibition at 10 uM; settings: read-out: GI
SN12C = experiment: Cytotoxicity against human SN12C cells assessed as growth inhibition at 10 uM; settings: read-out: GI
PC-3 = experiment: Cytotoxicity against human PC3 cells assessed as growth inhibition at 10 uM; settings: read-out: GI
CCRF-CEM = experiment: Cytotoxicity against human CCRF-CEM cells assessed as growth inhibition at 10 uM; settings: read-out: GI
ACHN = experiment: Cytotoxicity against human ACHN cells assessed as growth inhibition at 10 uM; settings: read-out: GI
HCT-116 = experiment: Cytotoxicity against human HCT116 cells assessed as growth inhibition at 10 uM; settings: read-out: GI
[11] = Cytotoxicity against human UACC62 cells assessed as growth inhibition at 10 uM; settings: UACC-62, read-out: GI
NCI-H460 = experiment: Cytotoxicity against human NCI-H460 cells assessed as growth inhibition at 10 uM; settings: read-out: GI

C=C(C)[C@H]1O[C@H]2CC[C@@]3(C)[C@@](O)(CC[C@H]4[C@@H]5OC(C)(C)[C@H]6C[C@@H]7C(=C)Cc8c(Cl)cc9[nH]c(c5c9c8[C@@]76O)[C@@]43C)[C@@]23O[C@H]3[C@H]1O [PENITREM A]
inhibition of growth at 10 µM [1]: 94% | inhibition of growth at 10 µM (SF-539): 89% | inhibition of growth at 10 µM [2]: 92.6% | inhibition of growth at 10 µM (CAKI-1): 35.5% | inhibition of growth at 10 µM (A549): 73.7% | inhibition of growth at 10 µM (SK-MEL-2): 95.1% | inhibition of growth at 10 µM (NCI-H322M): 65.2% | inhibition of growth at 10 µM (COLO 205): 91.3% | inhibition of growth at 10 µM (SNB-75): 53.7% | inhibition of growth at 10 µM [3]: 83.2% | inhibition of growth at 10 µM (KM12): 71.5% | inhibition of growth at 10 µM (K562): 66.1% | inhibition of growth at 10 µM (786-0): 93.1% | inhibition of growth at 10 µM (MDA-MB-435): 52.9% | inhibition of growth at 10 µM [4]: 105% | inhibition of growth at 10 µM (U-251): 85.1% | inhibition of growth at 10 µM (Malme-3M): 43.2% | inhibition of growth at 10 µM (HCC 2998): 77% | inhibition of growth at 10 µM [5]: 76.2% | inhibition of growth at 10 µM (NCI-H522): 77.1% | inhibition of growth at 10 µM (RXF 393): 76.5% | inhibition of growth at 10 µM (HT-29): 86.9% | inhibition of growth at 10 µM [6]: 41% | inhibition of growth at 10 µM (SW-620): 93.3% | inhibition of growth at 10 µM (SNB-19): 67.7% | inhibition of growth at 10 µM (DU-145): 85.5% | inhibition of growth at 10 µM (SK-MEL-5): 68.3% | inhibition of growth at 10 µM (MDA-MB-231 [7]): 97.5% | inhibition of growth at 10 µM (M14): 62.6% | inhibition of growth at 10 µM (HOP-62): 107% | inhibition of growth at 10 µM [8]: 76.3% | inhibition of growth at 10 µM (MOLT-4): 53.2% | inhibition of growth at 10 µM (NCI-H226): 76.8% | inhibition of growth at 10 µM (HL-60(TB)): 74.7% | inhibition of growth at 10 µM (TK-10): 98.6% | inhibition of growth at 10 µM (MCF7): 55.8% | inhibition of growth at 10 µM (SF-268): 71% | inhibition of growth at 10 µM [9]: 78.7% | inhibition of growth at 10 µM (T47D): 73.9% | inhibition of growth at 10 µM (LOX IMVI): 79.4% | inhibition of growth at 10 µM (MDA-MB-468): 69.6% | inhibition of growth at 10 µM (SK-MEL-28): 83.4% | inhibition of growth at 10 µM (SK-OV-3): 109% | inhibition of growth at 10 µM (SR): 46% | inhibition of growth at 10 µM (SF-295): 57.1% | inhibition of growth at 10 µM (IGROV-1): 74.9% | inhibition at 15 µM (MDA-MB-231 [10]): > 75% | inhibition of growth at 10 µM (NCI-H23): 88.6% | inhibition of growth at 10 µM (BT-549): 98.2% | inhibition of growth at 10 µM (SN12C): 73.3% | inhibition of growth at 10 µM (PC-3): 39.3% | inhibition of growth at 10 µM (CCRF-CEM): 57.2% | inhibition of growth at 10 µM (ACHN): 75.2% | inhibition of growth at 10 µM (HCT-116): 67.4% | inhibition of growth at 10 µM [11]: 74.9% | inhibition of growth at 10 µM (NCI-H460): 85.5%
